13 compounds from patent US5296491A, “Pyrazolo[4,3-c]pyridines and their use as serotonin reuptake inhibitors” (Hoechst-Roussel Pharmaceuticals Inc., priority 1993, dated 1994) can be followed below.

SMILES strings stand for the structures. Counter-ions that a name gives are not always drawn.

In the assay the test system is serotonin (5-hydroxytryptamine (5HT)) uptake. The assay is described as follows: [^3 H]-Serotonin Uptake in Rat Whole Brain and Hypothalamic Synaptosomes. It counts as biochemical, rat (male Wistar). The note with it: [^3 H]-5HT 50 nM, 5 minutes, 37° C., log probit analysis. Here is the method:
[^3 H]-Serotonin Uptake in Rat Whole Brain and Hypothalamic Synaptosomes
This activity is determined in an assay which measures [^3 H]-serotoninuptake in rat whole brain and hypothalamic synaptosomes. The assay described below is used as a biochemical screen for potential antidepressants which block serotonin (5-hydroxytryptamine (5HT)) uptake.
Male CR Wistar rats (100-125 g)
1. Krebs-Henseleit Bicarbonate Buffer, pH 7.4 (KHBB):
Prepare a 1 liter batch containing the following salts.
Prior to use add to 200 ml, per assay:
The batch is aerated for 60 minutes with 95% 02 /5% CO2, the pH is checked to insure it is at 7.4±0.1, then add bovine serum albumin (Sigma cat# A-7906) 1 mg/ml.
Make a 4 liter batch, containing the following salts:
3. Sucrose solution: 0.32M sucrose containing 5 mM HEPES and 0.1 mM EDTA; pH to 7.3 using Tris base.
4. A 0.1 mM stock solution of serotonin creatinine SO4 is made up in 0.01N HCl. This is used to dilute the specific activity of the radiolabeled 5HT.
5. 5-[1,2-^3 H(N)]-Hydroxytryptamine creatinine sulfate (serotonin), specific activity 20-30 Ci/mmol, is used.
The final desired concentration of [^3 H]-5HT in the assay is 50 nM. The dilution factor is 0.8. The KHBB is made up to contain 62.5 nM of [^3 H]-5HT.
6. For most assays, a 0.5 mM stock solution of the test compound is made up initially in either 10 μl of glacial acetic acid, 100 μl DMSO or 10 μl of the recrystallization solvent, to which is added approximately 10 ml of distilled water. Compounds are initially screened in duplicate at 3 concentrations (10^-8, 10^-7 and 10^-6 M) made up in water.
The Percoll method for preparing synaptosomes has been modified from Nagy, A., Delgado-Escueta, A. V. J. Neurochem. 43, 1114 (1984) and Dunkley, P. R., Jarvie, R. E., Heath, J. W., Kidd, G. J., Rostas, J. A. P. Brain Research 372, 115 (1986). Male Wistar rats are decapitated and the brain rapidly removed. Whole brain (minus cerebellum) is weighed and homogenized in 15 volumes of ice cold Sucrose solution using a Potter-Elvejhem homogenizer. The following procedures are performed on ice. Homogenization should be done with 4-5 up and down strokes at medium speeds (setting 4.5 to 5) to minimize synaptosome lysis. The homogenate is centrifuged at 1000 g (3000 rpm, Sorvall SS-34 rotor) for 10 minutes at 0°-4° C. The supernatant is removed and approximately 10 ml per tube is carefully layered onto a discontinuous Percoll (Sigma cat# P-1644) gradient: 21% Percoll in Sucrose solution at the bottom (15 ml per tube) and 10% Percoll in the middle ( 10 ml; colored with a few drops of phenol red for visibility).
The Percoll gradient tubes are carefully placed into a Beckman SW-28 swinging bucket rotor and spun in a Beckman XL90 ultracentrifuge using the following program: speed, 11,000 rpm (15,000 g) for 30 minutes at 4° C.; slow acceleration and deceleration (acceleration setting 9; deceleration setting 3). Tubes are carefully removed, and the top layer and the top part of the middle (red) layer are discarded using a pasteur pipette. The synaptosomes are located in the white fluffy band at the interface between the 10% and 21% Percoll layers. This is carefully removed, placed in a centriguge tube, diluted with KHBB and spun at 21,000 g (13,000 rpm, Sorvall SS-34 rotor). The pellet (synaptosomes) is resuspended in KHBB (10 vol per gram original brain wet weight; 1 brain minus cerebellum weighs approximately 1.2 g; 2.5 brains are needed per typical assay).
200 μl of the tissue suspension are added to each of 24 tubes (at a time) containing the 20 μl of vehicle or drug on ice. Three minutes later, 800 μl of KHBB containing [^3 H]-5HT are added, and the tubes are vortexed. The rack containing the 24 tubes is moved from the ice bath to a water bath set at 37° C. The tubes are incubated for 5 minutes under 95% O2 /5% CO2.

`Cc1ccccc1-c1nn(CCN)c2ccncc12` [1-(2-aminoethyl)-3-(2-methylphenyl)-1H-pyrazolo[4,3-c]pyridine]: the IC50 (commonly the point on the concentration scale where inhibition reaches its midpoint) is 870 nM. In other words, the sub-micromolar range. `NCCCCn1nc(-c2ccc(Cl)cc2Cl)c2cnccc21` [1-(4-aminobutyl)-3-(2,4-dichlorophenyl)-1H-pyrazolo[4,3-c]pyridine dimaleate]: it took 95 nM to reach half-maximal inhibition (IC50). For the compound `NCCn1nc(-c2ccccc2Br)c2cnccc21` [Example 2A, 1-(2-aminoethyl)-3-(2-bromophenyl)-1H-pyrazolo[4,3-c]pyridine dihydrochloride], the IC50 is 1530 nM. For `NCCn1nc(-c2cccc(Cl)c2Cl)c2cnccc21` [Example 2CC, 1-(2-aminoethyl)-3-(2,3-dichlorophenyl)-1H-pyrazolo[4,3-c]pyridine fumarate] the value was 210 nM; for `NCCCn1nc(-c2ccc(Cl)cc2)c2cnccc21` [Example 2D, 1-[3-aminopropyl]-3-(4-chlorophenyl)-1H-pyrazolo[4,3-c]pyridine dimaleate], 770 nM; for `NCCCn1nc(-c2cccc(Cl)c2Cl)c2cnccc21` [Example 2DD, 1-(3-aminopropyl)-3-(2,3-dichlorophenyl)-1H-pyrazolo[4,3-c]pyridine fumarate], 410 nM. In the case of `NCCn1nc(-c2ccc(Cl)c(Cl)c2Cl)c2cnccc21` [Example 2EE, 1-(2-aminoethyl)-3-(2,3,4-trichlorophenyl)-1H-pyrazolo[4,3-c]pyridine fumarate], the IC50 was determined as 49 nM.

`NCCCn1nc(-c2ccc(Cl)c(Cl)c2Cl)c2cnccc21` [Example 2FF, 1-(3-aminopropyl)-3-(2,3,4-trichlorophenyl)-1H-pyrazolo[4,3-c]pyridine fumarate] yielded an IC50 of 23 nM.

On to `NCCn1nc(-c2ccc(Br)cc2)c2cnccc21` [Example 2H, 1-(2-aminoethyl)-3-(4-bromophenyl)-1H-pyrazolo[4,3-c]pyridine], for which the IC50 was 940 nM. Compound `NCCCn1nc(-c2ccc(Cl)c(Cl)c2)c2cnccc21` [Example 2K, 1-(3-aminopropyl)-3-3,4-dichlorophenyl)-1H-pyrazolo[4,3-c]pyridine maleate] gave an IC50 of 240 nM. `NCCn1nc(-c2ccc(Cl)c(Cl)c2)c2cnccc21` [Example 2L, 1-(2-aminoethyl)-3-(3,4-dichlorophenyl)-1H-pyrazolo[4,3-c]pyridine maleate] had an IC50 of 210 nM.

`NCCn1nc(-c2ccc(C(F)(F)F)cc2)c2cnccc21` [Example 2Q, 1-(2-aminoethyl)-3-(4-trifluoromethylphenyl)-1H-pyrazolo[4,3-c]pyridine maleate] registered an IC50 of 1240 nM. This IC50 lies about 5.9-fold higher than the previous one. `NCCn1nc(-c2ccc(Cl)cc2Cl)c2cnccc21` [Example 2S, 1-(2-amimoethyl)-3-(2,4-dichlorophenyl)-1H-pyrazolo[4,3-c]pyridine fumarate] came in with an IC50 of 58 nM. Against the preceding compound, the IC50 is about 21-fold lower.
